Biological target: T1, N-type calcium channel (Mus musculus, UniProt O55017)
T1 construct: gene Cacna1b
Format: cell-based

T1 sequence (O55017 whole entry): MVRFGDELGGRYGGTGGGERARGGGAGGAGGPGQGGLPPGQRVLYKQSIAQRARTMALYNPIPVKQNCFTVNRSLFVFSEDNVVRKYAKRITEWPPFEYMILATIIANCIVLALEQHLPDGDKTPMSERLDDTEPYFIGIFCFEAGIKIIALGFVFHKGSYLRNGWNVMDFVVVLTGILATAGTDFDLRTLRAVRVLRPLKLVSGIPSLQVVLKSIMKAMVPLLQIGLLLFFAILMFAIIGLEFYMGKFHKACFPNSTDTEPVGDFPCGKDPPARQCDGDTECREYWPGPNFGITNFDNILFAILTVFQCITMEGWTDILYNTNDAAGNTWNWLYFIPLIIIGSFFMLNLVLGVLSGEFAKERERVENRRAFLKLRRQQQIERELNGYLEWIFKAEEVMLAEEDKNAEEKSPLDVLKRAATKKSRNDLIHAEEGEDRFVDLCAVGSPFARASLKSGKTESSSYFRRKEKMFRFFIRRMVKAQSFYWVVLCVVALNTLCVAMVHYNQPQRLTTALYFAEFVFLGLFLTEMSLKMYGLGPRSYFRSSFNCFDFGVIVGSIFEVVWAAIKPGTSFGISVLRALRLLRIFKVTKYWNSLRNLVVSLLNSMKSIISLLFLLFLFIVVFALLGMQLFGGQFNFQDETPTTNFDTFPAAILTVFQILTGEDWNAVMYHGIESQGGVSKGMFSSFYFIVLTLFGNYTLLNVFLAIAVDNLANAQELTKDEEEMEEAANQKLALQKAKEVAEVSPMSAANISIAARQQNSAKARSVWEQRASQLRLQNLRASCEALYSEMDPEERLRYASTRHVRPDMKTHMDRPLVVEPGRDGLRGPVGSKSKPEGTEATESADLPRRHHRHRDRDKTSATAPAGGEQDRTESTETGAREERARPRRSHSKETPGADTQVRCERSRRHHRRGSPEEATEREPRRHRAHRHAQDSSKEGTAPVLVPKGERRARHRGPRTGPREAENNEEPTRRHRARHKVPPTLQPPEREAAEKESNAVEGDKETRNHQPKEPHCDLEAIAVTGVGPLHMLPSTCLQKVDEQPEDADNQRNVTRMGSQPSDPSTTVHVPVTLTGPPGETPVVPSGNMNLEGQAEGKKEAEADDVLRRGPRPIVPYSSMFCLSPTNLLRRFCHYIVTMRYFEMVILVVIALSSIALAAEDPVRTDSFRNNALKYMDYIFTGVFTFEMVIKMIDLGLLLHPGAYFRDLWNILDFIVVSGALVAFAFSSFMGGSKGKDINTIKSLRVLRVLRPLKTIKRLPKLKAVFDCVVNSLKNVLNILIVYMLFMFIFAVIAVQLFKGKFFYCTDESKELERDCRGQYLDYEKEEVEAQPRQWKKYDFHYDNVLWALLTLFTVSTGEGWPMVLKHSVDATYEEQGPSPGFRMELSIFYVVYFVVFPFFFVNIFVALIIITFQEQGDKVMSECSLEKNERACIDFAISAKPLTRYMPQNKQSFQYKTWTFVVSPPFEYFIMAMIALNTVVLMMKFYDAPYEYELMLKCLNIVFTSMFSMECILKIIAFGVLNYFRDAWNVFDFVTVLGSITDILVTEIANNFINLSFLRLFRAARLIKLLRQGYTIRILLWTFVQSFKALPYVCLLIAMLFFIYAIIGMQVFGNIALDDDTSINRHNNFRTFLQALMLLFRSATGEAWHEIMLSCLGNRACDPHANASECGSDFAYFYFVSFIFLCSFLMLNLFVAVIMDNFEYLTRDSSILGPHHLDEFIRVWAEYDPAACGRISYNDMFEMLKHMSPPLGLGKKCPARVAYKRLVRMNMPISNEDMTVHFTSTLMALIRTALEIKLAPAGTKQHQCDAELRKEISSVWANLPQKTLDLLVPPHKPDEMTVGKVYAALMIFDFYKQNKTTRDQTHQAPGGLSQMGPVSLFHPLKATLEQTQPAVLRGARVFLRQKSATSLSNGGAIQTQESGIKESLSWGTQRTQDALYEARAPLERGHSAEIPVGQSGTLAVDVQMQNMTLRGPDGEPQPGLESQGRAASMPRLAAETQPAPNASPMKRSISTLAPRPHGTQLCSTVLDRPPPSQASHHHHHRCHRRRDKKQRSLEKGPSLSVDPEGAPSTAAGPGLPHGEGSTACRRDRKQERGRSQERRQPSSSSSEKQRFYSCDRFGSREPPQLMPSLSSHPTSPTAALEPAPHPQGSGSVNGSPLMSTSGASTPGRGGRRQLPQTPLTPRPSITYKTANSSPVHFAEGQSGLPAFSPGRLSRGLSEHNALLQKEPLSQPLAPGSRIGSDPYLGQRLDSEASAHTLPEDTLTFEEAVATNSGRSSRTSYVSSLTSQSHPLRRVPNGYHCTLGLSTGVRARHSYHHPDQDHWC

SMILES: O=C1CCC[C@@H]2[C@H]3CCCN4CCC[C@@H](CN12)[C@@H]34 [MT, Matrine]
- whole-cell patch clamp of HVA Ca2+ currents in native mouse DRG neurons, occlusi: the inhibitory effect of MT on HVA Ica current is mainly by inhibiting the N-type calcium channel
